In patent publication US4568490A, “Aminopropylaminobleomycin derivatives and process for preparation thereof” (Zaidan Hojin Biseibutsu Kagaku Kenkyu Kai, priority 1981, dated 1986):

How the values were obtained:
Bacillus subtilis = assay: Antimicrobial activity, agar plate-cylinder method; format: cell-based; conditions: Cu-free form; bleomycin A2 (Cu-free form) standard assumed 1,000 mcg/mg
Method: (1) Antimicrobial activity against Mycobacterium smegmatis ATCC 697 and Bacillus subtilis.
(§1) The activity was assayed against the above test microorganisms by the method of agar plate-cylinder, assuming the potency of bleomycin A2 (Cu-free form), used as standard, to be 1,000 mcg/mg.

ICR mice = assay: Pulmonary toxicity (pulmonary fibrosis) in mice, intratracheal instillation; format: in vivo; conditions: 16 μg/50 μl/mouse intratracheally, sacrificed 4 weeks after instillation; for Grade: total score of pulmonary fibrosis/total number of samples: score 0-6 points
Method: Male 15 weeks old ICR mice were used. Sixteen μg/50 μl/mouse of each test sample was intratracheally instilled. The mice were sacrificed 4 weeks after instillation to examine the incidence and grade of pulmonary fibrosis. The evaluation was made by comparing the number of administered mice suffering from pulmonary fibrosis and the grade of the disease.
(§2) In Tables 4A and 4B, the grade was numerically rated as follows:
(§3) 1 point: Accumulation of exudate in pulmonary alveoli and fibrosis-like change in alveolar septum.
(§4) 2 points: Fibrosis in several areas.
(§5) 4 points: Scattered fibrosis.
(§6) 6 points: Fibrosis in more than two-thirds of the total area.

Hela S3 cells = assay: Growth inhibitory activity against Hela S3 cells; format: cell-based; conditions: Cu-free form; Hela S3, 3 days incubation with compound
Method: The percentage growth inhibition was calculated using the equation: […] wherein A is the ultimate number of cells on the third day from the addition of a test sample, B is the ultimate number of cells in the control (without the addition of test sample), and C is the number of cells on the day of addition of the test sample.

[1] = system: Mycobacterium smegmatis ATCC 607; assay: Antimicrobial activity, agar plate-cylinder method; format: cell-based; conditions: Cu-free form; bleomycin A2 (Cu-free form) standard assumed 1,000 mcg/mg
Method: as §1

ICR strain mice = assay: Pulmonary toxicity (pulmonary fibrosis) in mice, intraperitoneal injection; format: in vivo; conditions: 5 mg/kg i.p. once a day for 10 days; for Grade of pulmonary fibrosis, % / Incidence of pulmonary fibrosis, % / Incidence: number of mice suffering from pulmonary fibrosis / Grade: total score of pulmonary fibrosis/total number of test animal: autopsy after 5 weeks; for Incidence: number of mice suffering from pulmonary fibrosis: affected/total mice; for Grade: total score of pulmonary fibrosis/total number of test animal: score 0-6 points; for Grade of pulmonary fibrosis, Ratio / Incidence of pulmonary fibrosis, Ratio: reference of the ratio not stated
Method: (3) Pulmonary toxicity (pulmonary fibrosis) in mice.
ICR strain mice (male; 15 weeks old; 9 mice per group) were used. Each mouse was administered with a daily dose of 5 mg/kg of the test sample by intraperitoneal injection, once a day, for 10 consecutive days. After completion of the predetermined administration, the mice were kept for 5 weeks under observation, then slaughtered, and autopsied to examine the incidence and grade of pulmonary fibrosis. The evaluation was made by comparing the number of administered mice suffering from pulmonary fibrosis and the grade of the disease.
as §2, §3, §4, §5, §6

| SMILES | Antimicrobial potency of Cu--free compound, against Bacillus subtilis (Bacillus subtilis) [mcg potency per mg] | Grade of pulmonary fibrosis, % (ICR mice) [%] | Incidence of pulmonary fibrosis, % (ICR mice) [%] | Incidence: number of mice with pulmonary fibrosis/number of mice (ICR mice) | Grade: total score of pulmonary fibrosis/total number of samples (ICR mice) | 50% growth inhibition concentration (ID50) of Cu--free compound against cultured Hela cell (Hela S3 cells) [µg/mL] | Antimicrobial potency of Cu--free compound, against Mycobacterium smegmatis ATCC 607 [1] [mcg potency per mg] | Grade of pulmonary fibrosis, % (ICR strain mice) [%] | Incidence of pulmonary fibrosis, % (ICR strain mice) [%] | Incidence: number of mice suffering from pulmonary fibrosis (ICR strain mice) | Grade: total score of pulmonary fibrosis/total number of test animal (ICR strain mice) | Grade of pulmonary fibrosis, Ratio (ICR strain mice) | Incidence of pulmonary fibrosis, Ratio (ICR strain mice) |
| --- | --- | --- | --- | --- | --- | --- | --- | --- | --- | --- | --- | --- | --- |
| Cc1c(N)nc(C(CC(N)=O)NCC(N)C(N)=O)nc1C(=O)NC(C(=O)NC(C)C(O)C(C)C(=O)NC(C(=O)NCCc1nc(-c2nc(C(=O)NCCCN(C)CCCNCc3ccc(Cl)c(Cl)c3)cs2)cs1)C(C)O)C(OC1OC(CO)C(O)C(O)C1OC1OC(CO)C(O)C(OC(N)=O)C1O)c1cnc[nH]1 (centres unmarked) [compound 7, 3-{N--Methyl-N--[3'-(m,p-dichlorobenzylamino)propyl]amino}propylaminoBLM] | 4263 | 13 | 30 | 3/10 | 4/30 | 0.82 | 10601 | 4 | 11 | 1/9 | 1/27 | 0.05 | 0.18 |
| Cc1c(N)nc(C(CC(N)=O)NCC(N)C(N)=O)nc1C(=O)NC(C(=O)NC(C)C(O)C(C)C(=O)NC(C(=O)NCCc1nc(-c2nc(C(=O)NCCCN(C)CCCNCc3ccc(Cl)cc3Cl)cs2)cs1)C(C)O)C(OC1OC(CO)C(O)C(O)C1OC1OC(CO)C(O)C(OC(N)=O)C1O)c1cnc[nH]1 (centres unmarked) [compound 8, 3-{N--Methyl-N--[3'-(o,p-dichlorobenzylamino)propyl]amino}propylaminoBLM] | 2940 | 25 | 25 | 2/8 | 6/24 | 1.05 | 13013 | 7 | 11 | 1/9 | 2/27 | 0.08 | 0.18 |
| Cc1c(N)nc(C(CC(N)=O)NCC(N)C(N)=O)nc1C(=O)NC(C(=O)NC(C)C(O)C(C)C(=O)NC(C(=O)NCCc1nc(-c2nc(C(=O)NCCCN(C)CCCN(Cc3ccc(OCc4ccc(Cl)cc4)c(OCc4ccc(Cl)cc4)c3)Cc3ccc(OCc4ccc(Cl)cc4)c(OCc4ccc(Cl)cc4)c3)cs2)cs1)C(C)O)C(OC1OC(CO)C(O)C(O)C1OC1OC(CO)C(O)C(OC(N)=O)C1O)c1cnc[nH]1 (centres unmarked) [compound 48, 3-{N--Methyl-N--[3'-(bis(3",4"di(p-chlorobenzyloxy)benzyl)amino)propyl]amino}propylaminoBLM] | 8 | – | – | – | – | 0.058 | 14 | 0 | 0 | 0/9 | 0/27 | 0.00 | 0.00 |
| Cc1c(N)nc(C(CC(N)=O)NCC(N)C(N)=O)nc1C(=O)NC(C(=O)NC(C)C(O)C(C)C(=O)NC(C(=O)NCCc1nc(-c2nc(C(=O)NCCCN(C)CCCN(Cc3ccc(OCc4ccc(Cl)c(Cl)c4)c(OCc4ccc(Cl)c(Cl)c4)c3)Cc3ccc(OCc4ccc(Cl)c(Cl)c4)c(OCc4ccc(Cl)c(Cl)c4)c3)cs2)cs1)C(C)O)C(OC1OC(CO)C(O)C(O)C1OC1OC(CO)C(O)C(OC(N)=O)C1O)c1cnc[nH]1 (centres unmarked) [compound 49, 3-{N--Methyl-N--[3'(bis(3",4"-di(m,p-dichlorobenzyloxy)benzyl)amino)propyl]amino}propylaminoBLM] | 8 | – | – | – | – | 0.063 | 23 | 0 | 0 | 0/9 | 0/27 | 0.00 | 0.00 |
| COc1ccc(COc2ccc(CN(CCCN(C)CCCNC(=O)c3csc(-c4csc(CCNC(=O)C(NC(=O)C(C)C(O)C(C)NC(=O)C(NC(=O)c5nc(C(CC(N)=O)NCC(N)C(N)=O)nc(N)c5C)C(OC5OC(CO)C(O)C(O)C5OC5OC(CO)C(O)C(OC(N)=O)C5O)c5cnc[nH]5)C(C)O)n4)n3)Cc3ccc(OCc4ccc(OC)cc4)c(OCc4ccc(OC)cc4)c3)cc2OCc2ccc(OC)cc2)cc1 (centres unmarked) [compound 50] | 35 | – | – | – | – | 0.70 | 145 | 0 | 0 | 0/9 | 0/27 | 0.00 | 0.00 |
| Cc1c(N)nc(C(CC(N)=O)NCC(N)C(N)=O)nc1C(=O)NC(C(=O)NC(C)C(O)C(C)C(=O)NC(C(=O)NCCc1nc(-c2nc(C(=O)NCCCN(C)CCCN(Cc3ccc(OCc4ccc(OCc5ccccc5)cc4)cc3)Cc3ccc(OCc4ccc(OCc5ccccc5)cc4)cc3)cs2)cs1)C(C)O)C(OC1OC(CO)C(O)C(O)C1OC1OC(CO)C(O)C(OC(N)=O)C1O)c1cnc[nH]1 (centres unmarked) [compound 51] | 46 | – | – | – | – | 0.12 | 163 | 0 | 0 | 0/9 | 0/27 | 0.00 | 0.00 |
| Cc1c(N)nc(C(CC(N)=O)NCC(N)C(N)=O)nc1C(=O)NC(C(=O)NC(C)C(O)C(C)C(=O)NC(C(=O)NCCc1nc(-c2nc(C(=O)NCCCN(C)CCCN(Cc3ccc(OCC4CCCCCCC4)cc3)Cc3ccc(OCC4CCCCCCC4)cc3)cs2)cs1)C(C)O)C(OC1OC(CO)C(O)C(O)C1OC1OC(CO)C(O)C(OC(N)=O)C1O)c1cnc[nH]1 (centres unmarked) [compound 52, 3-{N--Methyl-N--[3'-(bis(p-cyclooctylmethyloxybenzyl)amino)propyl)amino}propylaminoBLM] | 49 | – | – | – | – | 0.13 | 268 | 0 | 0 | 0/9 | 0/27 | 0.00 | 0.00 |
| Cc1c(N)nc(C(CC(N)=O)NCC(N)C(N)=O)nc1C(=O)NC(C(=O)NC(C)C(O)C(C)C(=O)NC(C(=O)NCCc1nc(-c2nc(C(=O)NCCCN(C)CCCN(Cc3cc(OCc4ccccc4)c(OCc4ccccc4)c(OCc4ccccc4)c3)Cc3cc(OCc4ccccc4)c(OCc4ccccc4)c(OCc4ccccc4)c3)cs2)cs1)C(C)O)C(OC1OC(CO)C(O)C(O)C1OC1OC(CO)C(O)C(OC(N)=O)C1O)c1cnc[nH]1 (centres unmarked) [compound 53, 3-{N--Methyl-N--[3'-(bis(3",4",5"-tribenzyloxybenzyl)amino)propyl]amino}propylaminoBLM] | 26 | – | – | – | – | 0.062 | 11 | 0 | 0 | 0/9 | 0/27 | 0.00 | 0.00 |
